The subject of series [1] is C. albicans (CA-1, Strain SLU-1). The series is described as follows: Radial diffusion assay. The format is cell-based, Candida albicans. The following applies: pmoles of peptide added to well to achieve a 30 mm^2 zone, PROBIT analysis, crude or purified (P′) peptide. The essentials: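 Yeast at 1×10^6 CFU/mL in agarose underlayer (3% Sabouraud, 10 mM sodium phosphate pH 7.4); 2-fold peptide dilutions in D-PBS from ~1 mg/mL loaded into wells, 3 h at 37° C, then nutrient overlayer overnight. Value: pmol/well giving 30 mm^2 net clear zone, by PROBIT regression.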

Series [2] in a line: Serum stability, anti-fungal activity after serum incubation by radial diffusion bioassay. Conditions: Activity in Serum t ½ (hr.). It is filed as in vitro ADME, rat or human serum. As to the method:
For these serum stability experiments, peptides were prepared by solid phase peptide sythesis and purified to 94% or greater purity as described in Example 1. Blood was collected from metaphane anesthesized rats by aortic bleed into Vacutainer™ tubes and allowed to clot at room temperature for approximately 30 minutes, then centrifuged at 3000 rpm (about 1000×g) for 10 minutes at room temperature and the serum aspirated. In addition, frozen human serum (North American Biologics, Inc., Miami, Fla., cat. no. 2140, lot no. 94115) was thawed at room temperature and filtered through a 0.45 μm membrane before use.
A 1 mg/mL solution of an exemplary XMP peptide to be tested was added to an equal volume of either rat or human serum described above and maintained at 37° C. At 0, 1, 2, and 4 hours, 100 μL were removed and processed by solid phase extraction for HPLC analysis as follows. Serum samples were prepared for HPLC using C-18 Sep-Pak cartridges (1 mL cartridge with 100 mg of sorbent, Waters Corp., Milford, Mass.). One hundred μL of serum sample were added to an equal volume of 1% TFA and mixed for 30 seconds on a Vortex mixer. The sample was then applied to a C-18 Sep-Pak cartridge that had been conditioned by washing with 1 mL of methanol followed by 1 mL Milli-Q water. Weakly reed components were eluted by washing with 1 mL of 0. 1% TFA. The bound peptide was eluted with two volumes of 250 μL 80% acetonitrile/0.065% TFA.
The peptides identified and purified after serum incubation as described above were subjected to N-terminal peptide sequencing performed on an Applied Biosystems Model 477A/120A sequencer and to electrospray ionization mass spectrometry (ESI/MS) performed using a VG Biotech Bio-Q Mass Spectrometer. In addition, the peptides identified and purified after serum incubation as described above were also tested for their anti-fungal activity in a radial diffusion bioassay with Candida albicans SLU-1 strain as described in Example 2.

A further series concerns mouse RAW 264.7 cells. As for the experimental part: (§1) An in vitro LPS neutralization screening assay for evaluation of Domain III derived peptides was developed (as described in co-owned and co-pending U.S. patent application Ser. No. 08/306,473) which provides both a measure of efficacy of each peptide (EC50) and of the toxicity/growth inhibition of each peptide (IC50).
(§2) The cells were counted and their concentration adjusted to 2×10^5 cells/mL and 100 μL aliquots were added to each well of a 96-well microtitre plate. […] This incubation was performed in the absence or presence of peptides in varying concentrations between 25 ng/mL and 50 μg/mL. […] Cell proliferation was quantitatively measured by the addition of 1 μCi/well [^3H]-thymidine 5 hours after the time of initiation of the assay. After the 15-hour incubation, labeled cells were harvested onto glass fiber filters with a cell harvester (Inotech Biosystems, INB-384, Sample Processing and Filter Counting System, Lansing, Mich.).

In series [3] the test system is mouse RAW 264.7 cells incubated with E. coli O113 LPS. The following applies: RAW 264.7 cells with E. coli O113 LPS; concentration reversing LPS growth inhibition by 50%. As to the method:
as §1, §2

Setting [4] is: RAW 264.7 cell growth inhibited by 50%.

This is an account of results in patent publication US6664231B1, “Anti-fungal peptides” (priority 1993, dated 2003).

What is called half-life is the time needed for the level to fall by half in the phase considered. Low values mean fast loss, high ones slow loss.

Where two headings read alike, the source gives them in different places. Square brackets hold non-standard residues; d marks the D form. Ends that are not written are not given here. Peptide text beside a SMILES is read from it. * marks the point of attachment. Phe(4-NH2) = Nc1ccc(C[C@H](N)C(=O)O)cc1; Octanoyl = CCCCCCCC(=O)*; Orn = NCCC[C@H](N)C(=O)O; Dab = NCC[C@H](N)C(=O)O

For H-KKKWAIQLKK-NH2 [XMP.377], in series [1], the “C. albicans pmol/30 mm^2 zone” value was found to be 146 pmol/30 mm^2 zone. Besides, in series [2], the half-life at 0.5 mg/mL was 1.8 h.
For H-KKKWLIQLKK-NH2 [XMP.348] the same measures were 284 pmol/30 mm^2 zone and 5.5 h.
For Ac-PWLIQLFHKK-NH2 [XMP.356], in that order: 550 pmol/30 mm^2 zone and 0.9 h.
For `CC[C@H](C)[C@H](NC(=O)[C@H](CC(C)C)NC(=O)[C@H](Cc1c[nH]c2ccccc12)NC(=O)[C@H](CCCN)NC(=O)[C@@H](N)CCCN)C(=O)N[C@@H](CCC(N)=O)C(=O)N[C@@H](CC(C)C)C(=O)N[C@@H](CCCN)C(=O)N[C@@H](CCCN)C(N)=O` [XMP.338], in that order: 1,194 pmol/30 mm^2 zone and 4.7 h.
On to H-KKWLIQLFHKP-NH2 [XMP.358], for which the “C. albicans pmol/30 mm^2 zone” value in series [1] is reported as 550 pmol/30 mm^2 zone. Besides, in series [2], the half-life at 0.5 mg/mL was 1.6 h.
For H-KKWLIQLFKK-NH2 [XMP.351], in that order: 385 pmol/30 mm^2 zone and 0.4 h.
For H-KKLQLLLKK-NH2 [XMP.381] the same measures were 391 pmol/30 mm^2 zone and 0.8 h.
On to `CCCCCCCC(=O)N[C@@H](CCCCN)C(=O)N[C@@H](CCCCN)C(=O)N[C@@H](Cc1c[nH]c2ccccc12)C(=O)N[C@@H](C)C(=O)N[C@H](C(=O)N[C@@H](CCC(N)=O)C(=O)N[C@@H](CC(C)C)C(=O)N[C@@H](CCCCN)C(=O)N[C@@H](CCCCN)C(N)=O)[C@@H](C)CC` [XMP.410] (Octanoyl-KKWAIQLKK-NH2), for which the “IC50 (toxicity/growth inhibition of peptide)” value in the series on mouse RAW 264.7 cells (setting [4]) was “NA (NA for IC50 means no evidence of decreased RAW cell growth at up to 50 μg/ml)”. For the same compound, the “In Vitro LPS Neutralization EC50” value in series [3] was over 25 µg/mL. Also, the “C. albicans pmol/30 mm^2 zone” value in series [1] stood at 599 pmol/30 mm^2 zone. In addition, the half-life at 0.5 mg/mL in series [2] is 2.9 h.
In the case of `CC[C@H](C)[C@H](NC(=O)[C@H](CC(C)C)NC(=O)[C@H](Cc1c[nH]c2ccccc12)NC(=O)[C@@H](N)CCCCN)C(=O)N[C@@H](CCN)C(=O)N[C@@H](CC(C)C)C(=O)N[C@@H](Cc1ccccc1)C(=O)N[C@@H](Cc1c[nH]cn1)C(=O)N[C@@H](CCCCN)C(=O)N[C@@H](CCCCN)C(N)=O` [XMP.371] (H-KWLI[Dab]LFHKK-NH2), the “C. albicans pmol/30 mm^2 zone” value is 843 pmol/30 mm^2 zone in series [1] and 523 pmol/30 mm^2 zone in series [1] (listed as XMP.371P′). The half-life at 0.5 mg/mL in series [2] was 0.9 h.
Take `CCCCCCCCCCCC(=O)N[C@H](CCCCN)C(=O)N[C@H](Cc1c[nH]c2ccccc12)C(=O)N[C@H](CC(C)C)C(=O)N[C@@H](C(=O)N[C@H](CCC(N)=O)C(=O)N[C@H](CC(C)C)C(=O)N[C@H](Cc1ccccc1)C(=O)N[C@H](Cc1c[nH]cn1)C(=O)N[C@H](CCCCN)C(=O)N[C@H](CCCCN)C(N)=O)[C@H](C)CC` [XMP.415]: in the series with mouse RAW 264.7 cells, the “IC50 (toxicity/growth inhibition of peptide)” value came to 6.80 ± 0.14 µg/mL. Further, the “In Vitro LPS Neutralization EC50” value in series [3] was 1.61 ± 0.03 µg/mL.
As for H-KKWLIQLFHKK-NH2 [XMP.352P], the “IC50 (toxicity/growth inhibition of peptide)” value with mouse RAW 264.7 cells (setting [4]) is “NA (NA for IC50 means no evidence of decreased RAW cell growth at up to 50 μg/ml)”. In addition, the “In Vitro LPS Neutralization EC50” value in series [3] amounted to 2.34 ± 0.38 µg/mL.
As to H-KWLIQLFHKP-NH2 [XMP.357], the “C. albicans pmol/30 mm^2 zone” value in series [1] came to 204 pmol/30 mm^2 zone. The half-life at 0.5 mg/mL in series [2] is 0.8 h.
As to `CC[C@H](C)[C@H](NC(=O)[C@H](CC(C)C)NC(=O)[C@@H](Cc1c[nH]c2ccccc12)NC(=O)[C@H](N)CCCCN)C(=O)N[C@@H](CCC(N)=O)C(=O)N[C@@H](CC(C)C)C(=O)N[C@@H](Cc1ccccc1)C(=O)N[C@@H](Cc1c[nH]cn1)C(=O)N[C@H](CCCCN)C(=O)N[C@H](CCCCN)C(N)=O` [XMP.363P], the “IC50 (toxicity/growth inhibition of peptide)” value with mouse RAW 264.7 cells (setting [4]) is reported as “NA (NA for IC50 means no evidence of decreased RAW cell growth at up to 50 μg/ml)”. Moreover, the “In Vitro LPS Neutralization EC50” value in series [3] was over 50 µg/mL.
In the case of `CC[C@H](C)[C@H](NC(=O)[C@H](CC(C)C)NC(=O)[C@H](Cc1c[nH]c2ccccc12)NC(=O)[C@H](CCCCN)NC(=O)[C@H]1CCCN1)C(=O)N[C@@H](CCC(N)=O)C(=O)N[C@@H](CC(C)C)C(=O)N[C@@H](CCCCN)C(=O)N[C@@H](CCCCN)C(N)=O` [XMP.334P], in the series on mouse RAW 264.7 cells (setting [4]), the “IC50 (toxicity/growth inhibition of peptide)” value is recorded as “NA (NA for IC50 means no evidence of decreased RAW cell growth at up to 50 μg/ml)”. Also, the “In Vitro LPS Neutralization EC50” value in series [3] was “NA (NA for EC50 means no evidence neutralization of LPS at up to 50 μg/ml)”.
Take H-KVKWLIQLF-NH2 [XMP.295P]: the “IC50 (toxicity/growth inhibition of peptide)” value in the series with mouse RAW 264.7 cells was over 25 µg/mL. For the same compound, the “In Vitro LPS Neutralization EC50” value in series [3] came to 3.69 ± 0.12 µg/mL.
On to H-KKQLLLLKK-NH2 [XMP.380P], for which the “IC50 (toxicity/growth inhibition of peptide)” value in the series on mouse RAW 264.7 cells (setting [4]) is “NA (NA for IC50 means no evidence of decreased RAW cell growth at up to 50 μg/ml)”. Further, the “In Vitro LPS Neutralization EC50” value in series [3] is “NA (NA for EC50 means no evidence neutralization of LPS at up to 50 μg/ml)”.
On to `CC[C@H](C)[C@H](NC(=O)[C@H](CC(C)C)NC(=O)[C@H](Cc1ccc(N)cc1)NC(=O)CNC(=O)[C@@H](NC(=O)[C@H](CCCCN)NC(=O)[C@H](CO)NC(=O)[C@@H](N)CCCCN)C(C)C)C(=O)N[C@@H](CCC(N)=O)C(=O)N[C@@H](CC(C)C)C(=O)N[C@@H](Cc1ccccc1)C(=O)N[C@@H](Cc1c[nH]cn1)C(=O)N[C@@H](CCCCN)C(=O)N[C@@H](CCCCN)C(N)=O` [XMP.133] (H-KSKVG[Phe(4-NH2)]LIQLFHKK-NH2), for which the “C. albicans pmol/30 mm^2 zone” value in series [1] is given as 284 pmol/30 mm^2 zone. In series [2], the half-life at 0.5 mg/mL was 14 h.
Consider KKWLIQLFKK-NH2 [XMP.351P], for which the “IC50 (toxicity/growth inhibition of peptide)” value in the series with mouse RAW 264.7 cells (setting [4]) is “NA (NA for IC50 means no evidence of decreased RAW cell growth at up to 50 μg/ml)”. The “In Vitro LPS Neutralization EC50” value in series [3] turned out to be 8.47 ± 0.71 µg/mL.
As to H-KVKWLIQLFHK-NH2 [XMP.288P], the “IC50 (toxicity/growth inhibition of peptide)” value in the series with mouse RAW 264.7 cells is over 25 µg/mL. Further, the “In Vitro LPS Neutralization EC50” value in series [3] came to 0.87 ± 0.06 µg/mL.
H-KKLLLLLKK-NH2 [XMP.385]: the “C. albicans pmol/30 mm^2 zone” value in series [1] is 127 pmol/30 mm^2 zone. In series [2], this compound showed a half-life at 0.5 mg/mL of 2.7 h.
For H-KVPWLIQLFHKK-NH2 [XMP.392P], in the series with mouse RAW 264.7 cells (setting [4]), the “IC50 (toxicity/growth inhibition of peptide)” value was “NA (NA for IC50 means no evidence of decreased RAW cell growth at up to 50 μg/ml)”. Moreover, in series [3], the “In Vitro LPS Neutralization EC50” value worked out at 24.03 ± 2.67 µg/mL.
For `CC[C@@H](C)[C@@H](NC(=O)[C@@H](C)NC(=O)[C@@H](Cc1c[nH]c2ccccc12)NC(=O)[C@@H](CCCCN)NC(=O)[C@H](N)CCCCN)C(=O)N[C@H](CCC(N)=O)C(=O)N[C@H](CC(C)C)C(=O)N[C@H](CCCCN)C(=O)N[C@H](CCCCN)C(N)=O` [XMP.375P] (H-[dK][dK][dW][dA][dI][dQ][dL][dK][dK]-NH2), in that order: “NA (NA for IC50 means no evidence of decreased RAW cell growth at up to 50 μg/ml)” and over 50 µg/mL.
In the case of `CC[C@H](C)[C@H](NC(=O)[C@H](CC(C)C)NC(=O)[C@H](Cc1c[nH]c2ccccc12)NC(=O)[C@H](CCCCN)NC(C)=O)C(=O)N[C@@H](CCCN)C(=O)N[C@@H](CC(C)C)C(=O)N[C@@H](Cc1ccccc1)C(=O)N[C@@H](Cc1c[nH]cn1)C(=O)N[C@@H](CCCCN)C(=O)N[C@@H](CCCCN)C(N)=O` [XMP.370P] (Ac-KWLI[Orn]LFHKK-NH2), the “IC50 (toxicity/growth inhibition of peptide)” value in the series on mouse RAW 264.7 cells was over 25 µg/mL. Moreover, the “In Vitro LPS Neutralization EC50” value in series [3] is listed as “NA (NA for EC50 means no evidence neutralization of LPS at up to 50 μg/ml)”.
